Patent US11384126B2, “Compositions and methods for inhibiting DHHC-type palmitoyltransferases for cancer treatment” (DANA-FARBER CANCER INSTITUTE, INC., priority 2017, dated 2022)

What was measured:
MDA-MB-231 cells = experiment: apoptotic cell death, caspase-3 blot after chemotherapeutic agents; type: cell-based, human; settings: for cell sensitivity to drug (apoptotic cell death, caspase-3) when zDHHC3 is ablated: MDA-MB-231, 25 hr, D3 shRNA vs control shRNA, Camptothecin 2 μM, Gefitinib 50 μM, 5-Fluorouracil 10 μg/ml
Procedure: Specifically, human breast carcinoma MDA-MB-231 cells were treated with Camptothecin (2 μM), Gefitinib (50 μM), 5-Fluorouracil (10 μg/ml), or DMSO (vehicle control), for 25 hr, lysed, then blotted for caspase-3, to assess apoptotic cell death. C=control shRNA; D3=stable DHHC3 ablation; D3^R=shRNA knockdown cells reconstituted with wild type DHHC3; D3^M=mutant DHHC3 (inactivated by C→S active site mutation).

DHHC proteins = settings: literature: Jennings et al., 2008; cited from earlier work
[1] = test system: ZDHHC3-ablated MDA-MB-231 cells; experiment: oxidative stress/ROS, CellROX dye, flow cytometry; type: cell-based, human; settings: for direct and indirect effects of oxidative stress in ZDHHC3-ablated cells: summary statement; for effect on oxidative stress/ROS elevated by ZDHHC3 ablation: ZDHHC3-ablated MDA-MB-231 cells, CellROX
Procedure: To assess oxidative stress/reactive oxygen species (ROS), control and ZDHHC3-ablated tumor cells were trypsinized and suspended in complete medium. After PBS wash, cells were loaded with 2 μM CellROX dye in complete medium (37° C., 30 min). Cells were then washed twice with IX PBS, incubated in complete media (37° C., 30 min), washed twice again with 1×PBS, and then analyzed by flow cytometry. Similarly, senescence was measured by loading suspended control and ZDHHC3 ablated cells with C12FDG dye (30 min, 37° C.) in complete medium. The C12FDG dye is converted by intracellular β-galactosidase (elevated in senescent cells) to produce fluorescence, which was quantitated by flow cytometry. […] Increased oxidative stress can decrease tyrosine phosphatase activities (Tanner et al., 2011 Antioxid Redox Signal, 15:77-97), which can elevate tyrosine phosphorylation of focal adhesion kinase (FAK) and STAT3 proteins (Carballo et al., 1999 J Biol Chem, 274:17580-6; Ben et al., 2000 IUBMB Life, 50:291-9).

[2] = test system: focal adhesion kinase (FAK); experiment: FAK tyrosine phosphorylation, immunoprecipitation and western blotting; type: cell-based, human; settings: control and ZDHHC3-ablated MDA-MB-231 cells, FIG. 2C upper panels
Excerpt: Increased oxidative stress can decrease tyrosine phosphatase activities (Tanner et al., 2011 Antioxid Redox Signal, 15:77-97), which can elevate tyrosine phosphorylation of focal adhesion kinase (FAK) and STAT3 proteins (Carballo et al., 1999 J Biol Chem, 274:17580-6; Ben et al., 2000 IUBMB Life, 50:291-9).

MCP-1 = MCP-1 secretion (senescence-associated), western blotting; type: cell-based, human; settings: MDA-MB-231 cells, FIG. 2C bottom panel
Procedure: Cells were cultured in DMEM and/or RPMI medium (Invitrogen, Grand Island, N.Y.) containing 10% FBS (Sigma, Mo.), HEPES and 1% penicillin-streptomycin (Invitrogen, Grand Island, N.Y.). […] Cultured cells were lysed in 1% Triton X-100, and total protein was quantified using BCA protein estimation kit. Western blotting and relative band intensity densitometry were described previously (Sharma et al., 2012 Cell Mol Life Sci, 69:2233-44).

ZDHHC3-ablated cells = experiment: senescence, C12FDG dye (β-galactosidase), flow cytometry; type: cell-based, human; settings: summary statement
Procedure: To assess oxidative stress/reactive oxygen species (ROS), control and ZDHHC3-ablated tumor cells were trypsinized and suspended in complete medium. After PBS wash, cells were loaded with 2 μM CellROX dye in complete medium (37° C., 30 min). Cells were then washed twice with IX PBS, incubated in complete media (37° C., 30 min), washed twice again with 1×PBS, and then analyzed by flow cytometry. Similarly, senescence was measured by loading suspended control and ZDHHC3 ablated cells with C12FDG dye (30 min, 37° C.) in complete medium. The C12FDG dye is converted by intracellular β-galactosidase (elevated in senescent cells) to produce fluorescence, which was quantitated by flow cytometry.

SMILES	cell sensitivity to drug (apoptotic cell death, caspase-3) when zDHHC3 is ablated (MDA-MB-231 cells)	direct and indirect effects of oxidative stress in ZDHHC3-ablated cells [1]	effect on ZDHHC3 ablation-induced FAK tyrosine phosphorylation [2]	MCP-1 upregulation in ZDHHC3-ablated cells (MCP-1)	increased senescence measured by β-galactosidase activity and/or SASP marker MCP-1 (ZDHHC3-ablated cells)	other results
O=c1[nH]cc(F)c(=O)[nH]1 [5-Fu, 5-Fluorouracil]	enhanced					
CC[C@@]1(O)C(=O)OCc2c1cc1n(c2=O)Cc2cc3ccccc3nc2-1 [camptothecin]	enhanced					cell sensitivity to drug (caspase-3) with inactive DHHC3 (D3M) compared to fully functional DHHC3 (D3R) (MDA-MB-231 cells; zDHHC3-ablated MDA-MB-231 reconstituted, lane 10 vs lane 9): markedly enhanced
COc1cc2ncnc(Nc3ccc(F)c(Cl)c3)c2cc1OCCCN1CCOCC1 [Gefitinib]	not enhanced					
O=C1C(=Cc2cc([N+](=O)[O-])ccc2O)Sc2ccccc21 [2-(2-hydroxy-5-nitro-benzylidene)-benzo[b]thiophen-3-one]						palmitoyltransferase activity of all DHHC proteins tested (DHHC proteins): inhibited
CC(C)c1c(C(=O)Nc2ccccc2)c(-c2ccccc2)c(-c2ccc(F)cc2)n1CC[C@@H](O)C[C@@H](O)CC(=O)O [atorvastatin]		substantially reversed	substantially prevented	markedly diminished	substantially reversed	
O=C(O)CCCCC1CCSS1 (stereo not drawn) [α-LA, α-lipoic acid]		substantially reversed	substantially prevented	markedly diminished	substantially reversed	effect on oxidative stress/ROS elevated by ZDHHC3 ablation [1]: substantially prevented
CC(=O)N[C@@H](CS)C(=O)O [NAC, N-acetyl cysteine]		substantially reversed	substantially prevented	markedly diminished	substantially reversed	effect on oxidative stress/ROS elevated by ZDHHC3 ablation [1]: substantially prevented; effect on oxidative stress/ROS elevated by ZDHHC3 ablation ([1]; listed as N-acetyl cysteine): partial reversal
CCCCCCCCCCCCCCC(Br)C(=O)O (stereo not drawn) [2-bromopalmitate]						palmitoyltransferase activity of all DHHC proteins tested (DHHC proteins): inhibited
